Measured values: US9724366B2, “CD11 B[low] macrophages and conditioned media thereof for treating cancer and/or fibrosis” (CARMEL-HAIFA UNIVRSITY ECONOMIC CORPORATION LTD., priority 2012, dated 2017)

Columns and labels:
[1] = system: macrophages recovered from peritoneal exudates; assay: Ex vivo macrophage switch to the CD11b^low phenotype by pro-resolving lipid mediators (flow cytometry); assay type: cell-based, mice; conditions: mediators 50 nM, Dex 25 μg/ml
Procedure: FIG. 8 show promotion of macrophage switch to the CD11b^low phenotype by pro-resolving lipid mediators. Macrophages were recovered from peritoneal exudates 72 hrs post peritonitis initiation and incubated overnight with vehicle (RPMI 10% FBS+0.05% ethanol), RvD1, RvD2, PD1, LXB4, or 15-epi-LXA4, (all at 50 nM), apoptotic cells (M/N ratio of 1:5), or Dex (25 μg/ml). Then, the cells were stained for CD11b and analyzed by flow cytometry, and the percentage of CD11b^low (A) and CD11b^high (B) macrophages was determined. Results are mean±SE of two experiments (n=2). #P<0.005, $ P<0.01, * P<0.05 compared to vehicle.
Macrophages were recovered from peritoneal exudates 72 hrs post peritonitis initiation and incubated overnight with either RPMI 10% FBS+0.05% ethanol, the resolvins RvD1 or RvD2, […] PD1 or lipoxins LXB4, or 15-epi-LXA4, (all at 50 nM), apoptotic cells (M/N ratio of 1:5), or Dex (25 μg/ml). After 20 hours, the cells were stained for CD11b and analyzed by flow cytometry.

[2] = system: peritonitis-affected mice; assay: Murine zymosan A peritonitis, RvD1, RvE1 or Dex introduced into the peritoneum; assay type: in vivo; conditions: for appearance of CD11b^low macrophages in peritoneal exudates, increases over vehicle treatment: RvD1, RvE1 100 ng/mouse, Dex 25 mg/mouse into peritoneum 48 h after peritonitis initiation, exudates at 66 h; for neutrophil numbers: peritoneal exudates
Procedure: Male C57BL/6 mice (6-8 wk) were injected intraperitionealy (I.P) with zymosan A (1 mg). 66 hours post zymosan A injection, the mice were euthanized by CO2, their peritoneal cavity was lavaged with 5 ml of phosphate buffered saline (PBS) and the peritoneal exudates were collected by centrifugation for further analysis and experimentation.
Peritoneal exudates were collected and exudate cells were stained with FITC-conjugated rat anti-mouse Ly-6G, PE-conjugated rat anti-mouse F4/80, and PerCP-conjugated rat anti-mouse CD11b (Biolegend) and analyzed by FACSCalibur (Beckton-Dickinson). Macrophages were isolated using EasySep PE selection magnetic beads following the manufacturer's instructions (StemCell Technologies).
In some experiments, the macrophages were sorted to CD11b^high and CD11b^low populations of >95% purity, using FACSaria (Beckton-Dickinson), and the separate populations were used for microscopic analysis and for ex vivo stimulation. In some experiments, PKH2-PCL green (0.25 mM, 0.5 mL) was injected I.P at 48 h and peritoneal cells were recovered 4 h later, immunostained for F4/80 and CD11b as above and analyzed for fluorescence intensity of different macrophage populations. In relevant experiments, vehicle, RvD1, RvE1 (100 ng/mouse each), or Dex (25 mg/mouse) were introduced to the peritoneum 48 h after peritonitis initiation, and the exudates were recovered after 66 h and analyzed as before.
Exudate cells or sorted CD11b^high and CD11b^low macrophages were stained with Hoechst, and enumerated under a fluorescent microscope (Zeiss). Two areas of two cover slips, each containing at least 50 (overall 200) macrophages were analyzed, and the average number of PMN engulfed per macrophage as well as the number of macrophages with cutoff numbers of engulfed PMN, were calculated.
Similar properties were attributed to glucocorticoids, such as dexamethasone (Dex), that inhibit leukocyte infiltration to inflammation sites and promote the clearance of apoptotic PMN by macrophages. To determine whether pro-resolving mediators regulate emergence of CD11b^low macrophages and thereby promote resolution, RvD1, RvE1, or Dex were introduced into peritonitis-affected mice, and the recovered leukocytes were collected and analyzed for macrophage and neutrophil numbers, macrophage CD11b expression, engulfment of PMN, and responsiveness to LPS. The results are presented in FIG. 8 of Schif-Zuck et al., 2011, which is incorporated herein by reference. […] In addition, RvD1, RvE1 and Dex enhanced the appearance of CD11b^low macrophages (32.8±8.8%, 46.2±1.8%, and 39.9±4.6% increases over vehicle treatment, for RvD1, RvE1, and Dex, respectively) in peritoneal exudates. […] To determine whether RvD1, RvE1, and Dex regulate apoptotic PMN engulfment by macrophages during resolution, exudate cells were enumerated for PMN engulfment and analyzed as in FIG. 2.

macrophages = assay: Cytokine secretion (ELISA) of macrophages from treated mice, unstimulated or activated with LPS; assay type: cell-based; conditions: unstimulated and LPS-stimulated macrophages
Procedure: Exudate macrophages were sorted or separated using PE selection magnetic beads (StemCell Technologies) and incubated (1×10^6 cells in 0.5 mL of culture media) with LPS (0-1000 ng/mL), poly (I:C) (4 μg/mL), or CpG-ODN (1 μM). After 16 h, the supernatants were collected and their TNF-α, IL-β, IL-10, TGFβ, CCL2, CCL3, and CCL5 contents were determined by standard ELISA.
To validate the improvement in immune-silencing of macrophages that followed treatment with RvD1, RvE1 and Dex, macrophages were activated with LPS, and cytokine secretion was determined. […] Thus, treatment with RvD1, RvE1, and Dex, promoted macrophage immune-silencing, as well as the secretion of pro-resolving cytokines from these cells.

MEFs = assay: Apoptosis detection in MEFs by TUNEL; assay type: cell-based, mouse; conditions: 1.5 μg/ml, 4 hours, positive control
Procedure: MEF cell line were cultured as described above in 8 well chamber glass slides, fixed with 4% PFA containing 5% sucrose and incubated for 1 hour with a mixture of TUNEL reaction mix according to the manufacturer's protocol (In Situ Cell death Detection Kit; TMR Red) covered with aluminum foil and placed in the 37° C., 5% CO2 incubator for 1 hour. Next, the slides were washed three times with PBS for 15 minutes each, and mounted with VECTASHIELD mounting medium with DAPI. The slides were imaged using a Nikon A1-R confocal laser scanning microscope (University of Haifa, Haifa, Israel).
3 images were captured from each well. Each captured frame was analyzed using NIS-Elements AR software to measure in the defined area the number of cells with positive DAPI staining, co-staining for DAPI and TUNEL (selected cells were larger than 8 μm), or Col-I expression by measuring sum intensity of area stained for Col-I per captured field.
Next we explored whether the inhibition of MEF proliferation by the CM-Mres was due to cell cycle arrest or increase in apoptosis of MEF. Therefore, we tested apoptosis of the MEFs at 48 hours. Therefore, MEFs were either untreated or were induced to differentiate on 8 chamber glass slides and were pre-incubated with CM-Mres 1 hour prior to adding TGFβ1. […] The cells were fixed and evaluated for apoptotic death by TUNEL staining. […]

Structure (SMILES): CCCCC[C@@H](O)/C=C/C=C\C=C\C=C\[C@@H](O)[C@@H](O)CCCC(=O)O [15-epi-LXA4]
- macrophage switch to the CD11b^low phenotype [1]: promotes macrophage switch

Structure (SMILES): C[C@@H]1C[C@H]2[C@@H]3CCC4=CC(=O)C=C[C@]4(C)[C@@]3(F)[C@@H](O)C[C@]2(C)[C@@]1(O)C(=O)CO [Dex, dexamethasone]
- appearance of CD11b^low macrophages in peritoneal exudates, increases over vehicle treatment [2]: 39.9±4.6%

Structure (SMILES): CCCCC[C@H](O)[C@H](O)/C=C/C=C/C=C\C=C\[C@@H](O)CCCC(=O)O [LXB4]
- macrophage switch to the CD11b^low phenotype [1]: promotes macrophage switch

Structure (SMILES): CC/C=C\C[C@H](O)\C=C/C=C/C=C/[C@H](O)C/C=C\C/C=C\CCC(=O)O [PD1]
- macrophage switch to the CD11b^low phenotype [1]: promotes macrophage switch

Structure (SMILES): CC/C=C\C[C@H](O)/C=C/C=C\C=C\C=C\[C@@H](O)[C@@H](O)C/C=C\CCC(=O)O [RvD1, 7S,8R,17S-trihydroxy-4Z,9E,11E,13Z,15E,19Z-docosahexaenoic acid]
- secretion of TNFα (macrophages): inhibited
- macrophage switch to the CD11b^low phenotype [1]: promotes macrophage switch
- appearance of CD11b^low macrophages in peritoneal exudates, increases over vehicle treatment [2]: 32.8±8.8%
- CD11b expression on CD11b^high macrophages ([2]; mouse, in vivo): reduced
- number of macrophages in peritoneal cavities ([2]; mouse, in vivo): reduced
- numbers of apoptotic PMN engulfed by macrophages present in the peritoneum ([2]; mouse, in vivo): reduced
- neutrophil numbers [2]: induced a reduction

Structure (SMILES): CC/C=C\C[C@H](O)[C@H](O)/C=C/C=C/C=C\C=C\[C@@H](O)C/C=C\CCC(=O)O [RvD2]
- macrophage switch to the CD11b^low phenotype [1]: promotes macrophage switch

Structure (SMILES): CC[C@@H](O)/C=C/C=C\C[C@@H](O)/C=C/C=C/C=C\[C@@H](O)CCCC(=O)O [RvE1, 5S,12R,18R-trihydroxy-4Z,8E,10E,14Z,16E-eico sapentaenoic acid]
- secretion of TNFα (macrophages): inhibited
- appearance of CD11b^low macrophages in peritoneal exudates, increases over vehicle treatment [2]: 46.2±1.8%
- CD11b expression on CD11b^high macrophages ([2]; mouse, in vivo): reduced
- appearance in the peritoneum of low-engulfing macrophages (less than 2 N/M) ([2]; mouse, in vivo): induced
- neutrophil numbers [2]: induced a reduction

Structure (SMILES): CN[C@@H]1C[C@H]2O[C@@](C)([C@@H]1OC)n1c3ccccc3c3c4c(c5c6ccccc6n2c5c31)C(=O)NC4 [staurosporine]
- percentage of apoptotic cells (TUNEL) (MEFs): no significant changes
